Results published in patent US4777182A, “6-Amidino-2-naphthyl 4-guanidinobenzoate derivatives and pharmaceutical composition containing them” (Torii & Co., Ltd., priority 1984, dated 1988).
Where “and” joins values, the source holds several entries; their conditions need not be identical. Equal entries are not always repeated. Where two headings read alike, the source gives them in different places.

Legend:
Trypsin = target: T1, Trypsin (Bos taurus, UniProt P00760); assay: Anti-trypsin activity (inhibition of TAME hydrolysis); assay type: biochemical; details: read-out: ID50, Trypsin
T1 sequence (P00760 24-246): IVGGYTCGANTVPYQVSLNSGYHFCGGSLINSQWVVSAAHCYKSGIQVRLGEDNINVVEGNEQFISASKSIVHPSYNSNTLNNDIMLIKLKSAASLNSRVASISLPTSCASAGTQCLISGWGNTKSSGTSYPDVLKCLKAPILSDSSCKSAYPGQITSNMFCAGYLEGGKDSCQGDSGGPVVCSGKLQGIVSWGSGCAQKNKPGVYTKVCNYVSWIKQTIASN

Plasmin = Plasmin (Homo sapiens, UniProt P00747); assay: Anti-plasmin activity (inhibition of TAME hydrolysis); assay type: biochemical
Plasmin, sequence (P00747 97-580 limits assumed, species assumed): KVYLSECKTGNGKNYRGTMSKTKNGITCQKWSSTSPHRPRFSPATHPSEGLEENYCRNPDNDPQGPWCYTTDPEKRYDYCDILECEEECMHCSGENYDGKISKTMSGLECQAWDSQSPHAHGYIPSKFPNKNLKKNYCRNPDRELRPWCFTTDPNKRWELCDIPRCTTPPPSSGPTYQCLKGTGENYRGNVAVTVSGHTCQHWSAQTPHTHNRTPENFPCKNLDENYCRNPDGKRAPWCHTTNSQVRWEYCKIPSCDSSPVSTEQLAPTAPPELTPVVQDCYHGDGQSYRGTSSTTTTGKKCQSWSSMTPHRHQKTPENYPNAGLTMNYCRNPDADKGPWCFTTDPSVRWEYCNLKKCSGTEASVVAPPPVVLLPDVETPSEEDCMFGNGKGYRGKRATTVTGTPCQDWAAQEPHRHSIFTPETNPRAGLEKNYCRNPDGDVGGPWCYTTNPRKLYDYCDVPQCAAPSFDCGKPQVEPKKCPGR
Plasmin, sequence (P00747 581-810 limits assumed, species assumed): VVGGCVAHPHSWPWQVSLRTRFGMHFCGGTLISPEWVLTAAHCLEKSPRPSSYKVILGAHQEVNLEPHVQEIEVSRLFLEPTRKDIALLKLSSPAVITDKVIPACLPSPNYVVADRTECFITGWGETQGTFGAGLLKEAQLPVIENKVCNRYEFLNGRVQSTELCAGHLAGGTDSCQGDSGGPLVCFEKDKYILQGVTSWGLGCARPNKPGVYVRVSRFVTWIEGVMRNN

Kallikrein = assay: Anti-kallikrein activity (inhibition of TAME hydrolysis); assay type: biochemical; details: read-out: ID50, Kallikrein
Thrombin = Thrombin (Homo sapiens, UniProt P00734); assay: biochemical; details: TAME hydrolysis; read-out: ID50, Thrombin
C1r = target: T2, C1r (Homo sapiens, UniProt P00736); assay: Anti-C1r activity (inhibition of AAME hydrolysis); assay type: biochemical; details: at 1×10^-5 M; read-out: percent inhibition, C1r (figure in parentheses)
T2 sequence (P00736 18-463 limits assumed): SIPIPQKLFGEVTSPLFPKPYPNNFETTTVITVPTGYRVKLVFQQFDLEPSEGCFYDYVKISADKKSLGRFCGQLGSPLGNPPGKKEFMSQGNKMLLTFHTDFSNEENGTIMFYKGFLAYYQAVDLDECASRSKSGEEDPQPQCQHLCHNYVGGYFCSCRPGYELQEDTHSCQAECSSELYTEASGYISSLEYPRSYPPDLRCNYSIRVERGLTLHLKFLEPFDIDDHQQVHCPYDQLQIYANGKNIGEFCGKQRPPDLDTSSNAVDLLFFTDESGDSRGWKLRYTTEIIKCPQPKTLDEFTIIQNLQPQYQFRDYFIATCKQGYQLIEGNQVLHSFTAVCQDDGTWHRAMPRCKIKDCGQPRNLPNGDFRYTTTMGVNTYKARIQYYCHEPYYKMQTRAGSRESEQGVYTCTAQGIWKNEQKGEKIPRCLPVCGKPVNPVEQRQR
T2 sequence (P00736 464-705 limits assumed): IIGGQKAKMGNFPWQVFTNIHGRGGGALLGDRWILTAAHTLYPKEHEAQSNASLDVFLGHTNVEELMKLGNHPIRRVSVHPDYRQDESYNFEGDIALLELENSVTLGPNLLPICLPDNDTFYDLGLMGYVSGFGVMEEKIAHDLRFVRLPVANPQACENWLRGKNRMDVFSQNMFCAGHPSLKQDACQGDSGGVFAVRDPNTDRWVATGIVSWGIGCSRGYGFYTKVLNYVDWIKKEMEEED
Experimental: The anti-C1 esterase (C1r, C1s) activity was determined according to the method of Okamura et al. [K. Okamura, M. Muramatsu and B. Fujii, Biochem. Biophys. Acta, 295, 252-257 (1973)]. (2) The inhibition of complement mediated hemolysis was determined according to the method of Baker et al. [B. R. Baker and E. H. Erickson, J. Med. Chem., 12, 408-414 (1969)]. The figures in Table 2 have the following meanings: C1r: […]

C1s = target: T3, C1s (Homo sapiens, UniProt P09871); assay: Anti-C1s activity (inhibition of ATEE hydrolysis); assay type: biochemical; details: read-out: ID50, C1s
T3 sequence (P09871 16-437 limits assumed): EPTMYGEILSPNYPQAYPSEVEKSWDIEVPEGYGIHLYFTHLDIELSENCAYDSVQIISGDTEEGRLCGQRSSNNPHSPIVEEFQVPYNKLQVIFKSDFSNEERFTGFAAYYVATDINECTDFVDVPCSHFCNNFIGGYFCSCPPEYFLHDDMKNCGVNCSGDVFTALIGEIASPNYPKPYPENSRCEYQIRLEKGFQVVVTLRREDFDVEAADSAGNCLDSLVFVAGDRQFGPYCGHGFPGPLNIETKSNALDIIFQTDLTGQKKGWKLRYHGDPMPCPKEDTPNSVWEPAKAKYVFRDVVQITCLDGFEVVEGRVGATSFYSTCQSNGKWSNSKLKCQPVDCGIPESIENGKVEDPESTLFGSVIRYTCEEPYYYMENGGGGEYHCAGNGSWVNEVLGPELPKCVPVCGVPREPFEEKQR
T3 sequence (P09871 438-688 limits assumed): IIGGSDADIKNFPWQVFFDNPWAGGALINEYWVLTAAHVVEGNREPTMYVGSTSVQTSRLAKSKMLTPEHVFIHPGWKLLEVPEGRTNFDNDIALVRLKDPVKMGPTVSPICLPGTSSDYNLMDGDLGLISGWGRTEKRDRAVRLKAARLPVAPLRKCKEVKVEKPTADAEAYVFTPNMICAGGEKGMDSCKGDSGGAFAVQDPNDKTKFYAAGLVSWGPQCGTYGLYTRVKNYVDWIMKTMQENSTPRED
Experimental: The anti-C1 esterase (C1r, C1s) activity was determined according to the method of Okamura et al. [K. Okamura, M. Muramatsu and B. Fujii, Biochem. Biophys. Acta, 295, 252-257 (1973)]. (2) The inhibition of complement mediated hemolysis was determined according to the method of Baker et al. [B. R. Baker and E. H. Erickson, J. Med. Chem., 12, 408-414 (1969)]. The figures in Table 2 have the following meanings:
C1s: Molar concentration of the test compound which inhibits 50% of the ability of C1s to hydrolyse ATEE (acetyltyrosin ethyl ester) (ID50).

[1] = test system: complement mediated hemolysis; assay: Inhibition of complement mediated hemolysis; assay type: cell-based
Excerpt: Therefore, when a known amount of complement admixed with a C1 esterase inhibitor is used, the hemolysis must be suppressed in proportion to the inhibitory activity.

Forssman shock = assay: Forssman shock; assay type: in vivo; details: guinea pig, 100 mg/kg orally before i.v. hemolysin, individual animals; for time elapsed until death: 100 mg/kg
Excerpt: Quite different from other animals, guinea pig has on the surface of its organs a specific antigen called Forssman antigen which specifically reacts with the antibody of sheep erythrocyte. Forssman shock is based on the above principle and is a shock caused by the administration of antibody of sheep erythrocyte to a guinea pig. The Forssman shock was investigated in detail by many researches and it was definitely shown that this shock is a model case where the complement plays the principal part and that the shock is associated with a classical pathway in which the complement system is activated progressively starting from C1. Since the participation of complement in autoimmune diseases has been established, the Forssman shock can be said to be useful means for testing a drug for autoimmune diseases. A drug effective for the treatment of Forssman shock is useful as a drug of autoimmune diseases.
The experiment was performed according to the method of I. G. Offerness et al. [Biochem. Pharmacol., 27 (14), 1873-1878 (1978)]. Male Hartley guinea pigs of about 350 g in body weight were used. Each guinea pig of the control group was administered intravenously with hemolysin (minimum dose to cause the shock) (commercial hemolysin, 5,000 U as assayed by the method of Ogata) and the time elapsed until death was observed. Each guinea pig of the treated group was administered intravenously with hemolysin after the animal was administered orally with compounds (100 mg/kg) and the time elapsed until death was observed.

[2] = Toxicity (median lethal dose); details: in vivo, mouse

| Structure (SMILES) | IC50 (Trypsin) [µM] | IC50 (Plasmin; TAME hydrolysis, read-out: ID50, Plasmin) [µM] | IC50 (Kallikrein) [µM] | IC50 (Thrombin) [µM] | inhibition at 10 µM (C1r) [%] | IC50 (C1s) [µM] | Inhibition of complement mediated hemolysis (%) ([1]; 1 × 10^-5) | Inhibition of complement mediated hemolysis (%) ([1]; 1 × 10^-6) | Inhibition of complement mediated hemolysis (%) ([1]; 1 × 10^-7) | Survival (instead of time elapsed until death) (Forssman shock) | time elapsed until death (Forssman shock) | IC50 (Plasmin) [µM] | LD50 ([2]; iv, I.V.) [mg/kg] | LD50 ([2]; po, P.O.) [mg/kg] |
| --- | --- | --- | --- | --- | --- | --- | --- | --- | --- | --- | --- | --- | --- | --- |
| CN=C(NC)Nc1ccc(C(=O)Oc2ccc3cc(C(=N)N)ccc3c2)cc1 [Compound No. 1, 6-amidino-2-naphthyl 4-(2,3-dimethyl)guanidino-benzoate] | 10 | 0.8 | 0.7 | 9 | 32 | 0.4 | 97 | 70 | 6 | Survival | 1291 s and 390 s and 504 s and 613 s and 404 s and 868 s | – | – | – |
| N=C(N)c1ccc2cc(OC(=O)c3ccc(NC4=NCCN4)cc3)ccc2c1 [Compound No. 2, 6-amidino-2-naphthyl 4-(2-imidazolinyl)amino-benzoate] | 1 | – | – | – | 35 | 0.7 | 100 | 91 | 29 | – | 1108 s and 1255 s and 980 s and 855 s | 2 | 19 | > 3000 |
